Type in all cases: cell-based
Assay [1] concerns PANC-1 (human pancreatic cancer cells). The assay can be described thus: MTT inhibition of cell growth in vitro, PANC-1. Particulars: PANC-1, MTT, 48 h, read-out: IC50 values of samples in vitro. An excerpt: (§1) (1) Cell lines: PANC-1 (human pancreatic cancer cells), SKOV3 (human ovarian cancer cells), MCF-7 (human breast cancer cells), Bcap-37 (human breast cancer cells), SMMC-7721 (human hepatic cancer cells), HepG-2 (human hepatic cancer cells), A549 (human lung cancer cells) and H460 (human lung cancer cells), storaged and passaged maintainably in Research and Evaluation Center for Pharmacology, Shanghai Institute of Pharmaceutical Industry;
(§2) The inhibition effects of samples on the above-mentioned cell lines were detected by using MTT method. The specific procedures were as follows: […]
(§3) (4) Cells in a logarithmic growth stage were trypsinized and washed, then re-suspended in the medium containing 10% calf serum. The number of living cells was counted in Trypan blue dye exclusion method and cell suspensions were adjusted into a density of 2×10^5 cell/ml. […]
(§4) (7) 100 μl of crystal dissolving solution was added into each well and cells were incubated continuously in the incubator overnight, so as to dissolve the resulted formazan crystals sufficiently. Then, the absorbance value was measured at 570 nm for each well.
(§5) (8) Based on absorbance values, inhibition rates on the cell growth were calculated for sample groups of various concentrations. The calculation formula was as follows: (1−mean absorbance of experimental wells/mean absorbance of control wells)×100%

In assay [2] the test system is SKOV3 (human ovarian cancer cells). Kind of assay: MTT inhibition of cell growth in vitro, SKOV3. Particulars: SK-OV-3, 48 h, read-out: IC50 values of samples in vitro.
Text: as §1, §2, §3, §4, §5

Assay [3] has as its system Bcap-37 (human breast cancer cells). The assay can be described thus: MTT inhibition of cell growth in vitro, Bcap-37. The settings on record: Bcap37, Bcap-37, MTT, 48 h, read-out: IC50 values of samples in vitro.
Text: as §1, §2, §3, §4, §5

The subject of assay [4] is SMMC-7721 (human hepatic cancer cells). Kind of assay: MTT inhibition of cell growth in vitro, SMMC-7721. The settings on record: SMMC-7721, MTT, 48 h, read-out: IC50 values of samples in vitro.
Text: as §1, §2, §3, §4, §5

In assay [5] the test system is H460 (human lung cancer cells). Kind of assay: MTT inhibition of cell growth in vitro, H460. The settings on record: NCI-H460, 48 h, read-out: IC50 values of samples in vitro.
Text: as §1, §2, §3, §4, §5

≈ marks a conversion by molar mass, not a printed value.

Consider one compound from patent US10596218B2, “Coix seed oil containing 16 glycerides, and pharmaceutical preparation and use thereof” (ZHEJIANG KANGLAITE GROUP CO., LTD., priority 2014, dated 2020).

With `CC(=O)O[C@H]1C(=O)[C@@]2(C)[C@H]([C@H](OC(=O)c3ccccc3)[C@]3(O)C[C@H](OC(=O)[C@H](O)[C@@H](NC(=O)c4ccccc4)c4ccccc4)C(C)=C1C3(C)C)[C@]1(OC(C)=O)CO[C@@H]1C[C@@H]2O` [Taxol], the IC50 amounted to 0.44 µg/mL (≈ 0.515 µM) in assay [1]; 0.22 µg/mL (≈ 0.258 µM) in assay [2]; 0.28 µg/mL (≈ 0.328 µM) in assay [3]; 0.12 µg/mL (≈ 0.141 µM) in assay [4]; 0.49 µg/mL (≈ 0.574 µM) in assay [5].

One may read the IC50 as the point on the concentration scale where inhibition reaches its midpoint.
